Reference: US4521538A (Medosan Industrie Biochimiche Riunite S.p.A., priority 1982, dated 1985)
Like-named read-outs stand apart in the source and are kept apart here.

How the values were obtained:
[1] = Antiinflammatory activity, carrageenin-induced oedema test; type: in vivo, rats
Experimental: This effect was evaluated by means of an experimental model reproducing acute inflammation in rats: for this purpose the carrageenin-induced oedema test was employed following the method described by C. A. Winter (J. Pharmac. Exp. […] Wong, J. F. Gardocki and T. P. Pruss, J. Pharmac. Exp. Ther. 185 (1): 127, 1973). Table I lists the tested compounds, the concentration thereof, routes of administration and relative percentage oedema inhibitions; the data are commented upon at the end of the Tables.

[2] = Analgesic activity, phenylquinone-induced writhing test; type: in vivo
Experimental: The inhibiting effect on the abdominal contractions induced by phenyl-p-quinone was calculated by the following formula: [formula]
Table II lists the doses, routes of administration and their efficacy expressed as percentage of protection.

[3] = Antipyretic activity, yeast-induced hyperthermia; type: in vivo, albino male Wistar rats
Source text: (§1) The composition that had been administered via the oral and/or parenteral route, was in suspension of 0.5% carboxymethylcellulose in neutral pH physiological saline solution.

[4] = Mucolytic activity in vitro, consistency of human expectoration
Experimental: The experiment was carried out "in vitro" according to the method of R. S. Hirsch (Bull. […] Table IV lists the percentage decrease of the expectoration consistency provoked by the compound of this invention in comparison with dithiothreitol and acetylcysteine which are known mucolytic agents.

[5] = Antitussive activity (method of Y. Kase); type: in vivo, albino male Guinea-pigs
Experimental: The antitussive effect on albino male Guinea-pigs weighing 300 g was evaluated using the method described by Y. Kase (Selected Pharmacological Testing Methods, p. 363, Marcel Dekker Inc., New York, 1968).

[6] = type: in vivo, male Wistar rats; settings: for % incidence / 10 / gastric damage index / mean No. of lesions / mean severity: four days; for mean severity: scale 0 (no lesion) to 5 (perforations)
Experimental: Male Wistar rats weighing 180 g were randomized into groups of 10. Three doses of each compound were administered. One group received the vehicle alone (10 ml/kg b.w.). Each dose was given orally for four days consecutively and the rats were sacrificed on the fifth day for necropsy. The ulcerogenic effect was evaluated by the following scale:
(1) each haemorrhagic point at least 1 mm in diameter was scored as 1 lesion,
(2) haemorrhagic points less than 1 mm in diameter were scored in the following manner:
(c) 20 to 29=three lesions
(2) gastric mucosal irritation without haemorrhage: 1
(3) haemorrhagic points less than 1 mm in diameter: 2
(4) haemorrhagic points between 1 and 3 mm in diameter: 3
(5) haemorrhagic points larger than 3 mm in diameter: 4
By means of this scale it was possible to obtain the gastric damage index: [formula]

[7] = in vivo; settings: mouse
[8] = in vivo; settings: rat
[9] = Solubility; type: physicochemical
[10] = system: healthy animals; experiment: General observation of toxic effects in animals at the doses used
Source text: as §1

## COc1ccccc1OC(=O)Cc1ccc(C(=O)c2ccc(C)cc2)n1C [1-methyl-5-p-toluoylpyrrole-2-acetic acid guaiacyl ester]
[1]; 25 mg/kg i.p., 2 h
  Oedema % inhibition: 33.5%
[1]; 25 mg/kg i.p., 4 h
  Oedema % inhibition: 30.0%
[1]; 25 mg/kg i.p., 6 h
  Oedema % inhibition: 25.0%
[1]; 25 mg/kg i.p., 24 h
  Oedema % inhibition: 7.0%
[1]; 25 mg/kg per os, 2 h
  Oedema % inhibition: 27.0%
[1]; 25 mg/kg per os, 4 h
  Oedema % inhibition: 29.0%
[1]; 25 mg/kg per os, 6 h
  Oedema % inhibition: 28.0%
[1]; 25 mg/kg per os, 24 h
  Oedema % inhibition: 3.2%
[1]; 50 mg/kg i.p., 2 h
  Oedema % inhibition: 55.0%
[1]; 50 mg/kg i.p., 4 h
  Oedema % inhibition: 51.6%
[1]; 50 mg/kg i.p., 6 h
  Oedema % inhibition: 49.0%
[1]; 50 mg/kg i.p., 24 h
  Oedema % inhibition: 9.2%
[1]; 50 mg/kg per os, 2 h
  Oedema % inhibition: 49.0%
[1]; 50 mg/kg per os, 4 h
  Oedema % inhibition: 53.0%
[1]; 50 mg/kg per os, 6 h
  Oedema % inhibition: 51.0%
[1]; 50 mg/kg per os, 24 h
  Oedema % inhibition: 5.3%
[1]; 100 mg/kg i.p., 2 h
  Oedema % inhibition: 80.0%
[1]; 100 mg/kg i.p., 4 h
  Oedema % inhibition: 78.0%
[1]; 100 mg/kg i.p., 6 h
  Oedema % inhibition: 70.0%
[1]; 100 mg/kg i.p., 24 h
  Oedema % inhibition: 9.5%
[1]; 100 mg/kg per os, 2 h
  Oedema % inhibition: 71.6%
[1]; 100 mg/kg per os, 4 h
  Oedema % inhibition: 77.8%
[1]; 100 mg/kg per os, 6 h
  Oedema % inhibition: 77.0%
[1]; 100 mg/kg per os, 24 h
  Oedema % inhibition: 7.2%
[1]; oral and/or parenteral
  action against acute inflammation in words: inhibiting action against acute inflammation
[2]; 5 mg/kg i.p.
  % protection: 30.0%
[2]; 5 mg/kg per os
  % protection: 30.0%
[2]; 10 mg/kg i.p.
  % protection: 62.5%
[2]; 10 mg/kg per os
  % protection: 58.6%
[2]; 20 mg/kg i.p.
  % protection: 78.0%
[2]; 20 mg/kg per os
  % protection: 79.4%
[2]; oral and/or parenteral
  analgesic action in words: marked analgesic action
[3]; 50 mg/kg i.p., 1 h
  % temperature decrease: 18.0%
[3]; 50 mg/kg i.p., 2 h
  % temperature decrease: 26.0%
[3]; 50 mg/kg i.p., 3 h
  % temperature decrease: 39.0%
[3]; 50 mg/kg per os, 1 h
  % temperature decrease: 16.0%
[3]; 50 mg/kg per os, 2 h
  % temperature decrease: 20.0%
[3]; 50 mg/kg per os, 3 h
  % temperature decrease: 33.0%
[3]; 75 mg/kg i.p., 1 h
  % temperature decrease: 30.0%
[3]; 75 mg/kg i.p., 2 h
  % temperature decrease: 35.0%
[3]; 75 mg/kg i.p., 3 h
  % temperature decrease: 56.0%
[3]; 75 mg/kg per os, 1 h
  % temperature decrease: 18.0%
[3]; 75 mg/kg per os, 2 h
  % temperature decrease: 27.0%
[3]; 75 mg/kg per os, 3 h
  % temperature decrease: 49.0%
[3]; 100 mg/kg i.p., 1 h
  % temperature decrease: 42.0%
[3]; 100 mg/kg i.p., 2 h
  % temperature decrease: 49.0%
[3]; 100 mg/kg i.p., 3 h
  % temperature decrease: 58.0%
[3]; 100 mg/kg per os, 1 h
  % temperature decrease: 29.0%
[3]; 100 mg/kg per os, 2 h
  % temperature decrease: 35.0%
[3]; 100 mg/kg per os, 3 h
  % temperature decrease: 50.0%
[3]; oral and/or parenteral
  antithermic activity in words: considerable antithermic activity
[4]; 1.0 M (9%), 12 experiments
  % decrease of expectoration consistency: 52%
[4]; described as in vivo tests
  mucolytic activity in words: good mucolytic and antitussive activity
[5]; 50 mg/kg i.p.
  % inhibition, amplitude of coughs: 18%
  % inhibition, frequency of coughs: 26%
[5]; 50 mg/kg per os
  % inhibition, amplitude of coughs: 16%
  % inhibition, frequency of coughs: 22%
[5]; 75 mg/kg i.p.
  % inhibition, amplitude of coughs: 25%
  % inhibition, frequency of coughs: 50%
[5]; 75 mg/kg per os
  % inhibition, amplitude of coughs: 19%
  % inhibition, frequency of coughs: 45%
[5]; 100 mg/kg i.p.
  % inhibition, amplitude of coughs: 40%
  % inhibition, frequency of coughs: 55%
[5]; 100 mg/kg per os
  % inhibition, amplitude of coughs: 38%
  % inhibition, frequency of coughs: 56%
[5]; in vivo tests
  antitussive activity in words: good mucolytic and antitussive activity
[6]; 50 mg/kg orally
  % incidence / 10: 7
  gastric damage index: 9
  mean No. of lesions: 1
  mean severity: 1
[6]; 100 mg/kg orally
  % incidence / 10: 8
  gastric damage index: 11
  mean No. of lesions: 1
  mean severity: 2
[6]; 200 mg/kg orally
  % incidence / 10: 8
  gastric damage index: 12
  mean No. of lesions: 2
  mean severity: 2
[6]; number of gastric lesions and their severity (Table VI)
  ulcerogenic effect in words: moderate
[6]; rat, in vivo
  gastrointestinal tolerability: perfectly tolerated by the gastrointestinal tract
[7]; ip
  LD50: 1200 mg/kg
[7]; po
  LD50: > 1500 mg/kg
[8]; ip
  LD50: 1180 mg/kg
[8]; po
  LD50: > 1500 mg/kg
[9]
  Solubility: soluble in the usual organic solvents
[10]; healthy animals, doses and routes used in the experiments, long- or short-term treatments
  death: did not provoke death
[10]; in vivo
  apparent signs of toxic effects: nor apparent signs of toxic effects
  significant toxic effects: did not provoke significant toxic effects
  therapeutical index: high therapeutical index
